From PubChem BioAssay AID248 (DTP/NCI, 2004)
Several values for one entry are separate records, joined by “and”; a condition that tells them apart may be missing. Equal values may be shown once. Toxic doses and inconclusive results are not listed.

Test system: L1210 leukemia ip in BDF1 mice, survival T/C
Assay: NCI In Vivo Anticancer Drug Screen. Data for tumor model L1210 Leukemia (intraperitoneal) in B6D2F1 (BDF1) mice
Settings: endpoint: mean survival time, higher = longer survival
Summary of the method: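 Survival endpoint. Drug-treated group vs vehicle group, expressed as T divided by C. Tumor passaged by transplantation.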

[1] = dose: 100.0 mg/kg/injection, schedule: Q01DX009 (ip), vehicle: saline
[2] = dose: 100.0 mg/kg/injection, schedule: Q01DX001 (ip), vehicle: saline
[3] = dose: 200.0 mg/kg/injection, schedule: Q01DX001 (ip), vehicle: saline
[4] = dose: 400.0 mg/kg/injection, schedule: Q01DX001 (ip), vehicle: saline
[5] = dose: 100.0 mg/kg/injection, schedule: Q01DX009 (ip), vehicle: saline with Tween-80
[6] = dose: 200.0 mg/kg/injection, schedule: Q01DX009 (ip), vehicle: saline with Tween-80
[7] = dose: 400.0 mg/kg/injection, schedule: Q01DX009 (ip), vehicle: saline with Tween-80

For CC(=O)Nc1ccc2nc3ccc(NC(C)=O)cc3[n+](-c3ccccc3)c2c1, the T/C (dose: 0.25 mg/kg/injection, schedule: Q01DX Z (ip), vehicle: methylcellulose (MC)) was 105 % of control, the T/C (dose: 0.5 mg/kg/injection, schedule: Q01DX Z (ip), vehicle: methylcellulose (MC)) was 121 % of control and the T/C (dose: 0.75 mg/kg/injection, schedule: Q01DX009 (ip), vehicle: saline) was 111 % of control. The T/C (dose: 1.25 mg/kg/injection, schedule: Q#A X Z (ip), vehicle: saline) was 89 % of control, the T/C (dose: 1.5 mg/kg/injection, schedule: Q01DX009 (ip), vehicle: saline) was 114 % of control and the T/C (dose: 2.5 mg/kg/injection, schedule: Q01DX Z (ip), vehicle: saline) was 98 % of control. The T/C (dose: 2.5 mg/kg/injection, schedule: Q#A X Z (ip), vehicle: saline) was 109 % of control, the T/C (dose: 3.0 mg/kg/injection, schedule: Q01DX009 (ip), vehicle: saline) was 122 % of control and the T/C (dose: 4.4 mg/kg/injection, schedule: Q07DX Z (ip), vehicle: saline) was 105 % of control. The T/C (dose: 5.0 mg/kg/injection, schedule: Q01DX Z (ip), vehicle: saline) was 118 % of control, the T/C (dose: 5.0 mg/kg/injection, schedule: Q#A X Z (ip), vehicle: saline) was 123 % of control and the T/C (dose: 6.0 mg/kg/injection, schedule: Q01DX009 (ip), vehicle: saline) was 120 % of control. The T/C (dose: 7.5 mg/kg/injection, schedule: Q03DX Z (ip), vehicle: saline) was 111 % of control, the T/C (dose: 8.8 mg/kg/injection, schedule: Q07DX Z (ip), vehicle: saline) was 110 % of control and the T/C (dose: 10.0 mg/kg/injection, schedule: Q01DX009 (sc), vehicle: propolene glycol) was 97 % of control. The T/C (dose: 10.0 mg/kg/injection, schedule: Q01DX015 (ip), vehicle: propolene glycol) was 152 % of control, the T/C (dose: 12.5 mg/kg/injection, schedule: Q01DX Z (ip), vehicle: methylcellulose (MC)) was 150 % of control and the T/C (dose: 15.0 mg/kg/injection, schedule: Q03DX Z (ip), vehicle: saline) was 118 % of control. For the same compound, the T/C (dose: 17.5 mg/kg/injection, schedule: Q07DX Z (ip), vehicle: saline) was 115 % of control, the T/C (dose: 20.0 mg/kg/injection, schedule: Q01DX010 (sc), vehicle: propolene glycol) was 96 % of control and the T/C (dose: 20.0 mg/kg/injection, schedule: Q01DX Z (ip), vehicle: saline) was 123 % of control. The T/C (dose: 20.0 mg/kg/injection, schedule: Q#A X Z (ip), vehicle: saline) was 180 % of control, the T/C (dose: 25.0 mg/kg/injection, schedule: Q01DX Z (ip), vehicle: methylcellulose (MC)) was 166 % of control and the T/C (dose: 31.25 mg/kg/injection, schedule: Q01DX009 (ip), vehicle: saline) was 164 % of control. The T/C (dose: 31.3 mg/kg/injection, schedule: Q01DX009 (ip), vehicle: saline) was 161 % of control, the T/C (dose: 40.0 mg/kg/injection, schedule: Q01DX010 (sc), vehicle: propolene glycol) was 102 % of control and the T/C (dose: 40.0 mg/kg/injection, schedule: Q01DX015 (ip), vehicle: propolene glycol) was 172 % of control. The T/C (dose: 40.0 mg/kg/injection, schedule: Q01DX Z (ip), vehicle: saline) was 172 % of control, the T/C (dose: 50.0 mg/kg/injection, schedule: Q01DX009 (ip), vehicle: saline) was 162 % of control and the T/C (dose: 50.0 mg/kg/injection, schedule: Q01DX Z (ip), vehicle: methylcellulose (MC)) was 100 % of control. The T/C (dose: 64.0 mg/kg/injection, schedule: Q01DX010 (iv), vehicle: saline) was 97 % of control, the T/C (dose: 80.0 mg/kg/injection, schedule: Q01DX009 (oral), vehicle: propolene glycol) was 98 % of control and the T/C (dose: 80.0 mg/kg/injection, schedule: Q01DX009 (sc), vehicle: propolene glycol) was 95 % of control. For the same compound, the T/C [1] was 206 % of control, the T/C (dose: 120.0 mg/kg/injection, schedule: Q01DX009 (oral), vehicle: propolene glycol) was 98 % of control and the T/C (dose: 120.0 mg/kg/injection, schedule: Q03DX Z (ip), vehicle: saline) was 159 % of control. The T/C (dose: 128.0 mg/kg/injection, schedule: Q01DX010 (iv), vehicle: saline) was 102 % of control, the T/C (dose: 175.0 mg/kg/injection, schedule: Q01DX001 (ip), vehicle: saline) was 105 % of control and the T/C (dose: 222.0 mg/kg/injection, schedule: Q01DX Z (oral), vehicle: saline) was 116 % of control. The T/C (dose: 256.0 mg/kg/injection, schedule: Q01DX010 (iv), vehicle: saline) was 108 % of control, the T/C (dose: 265.0 mg/kg/injection, schedule: Q01DX001 (ip), vehicle: saline) was 108 % of control and the T/C (dose: 270.0 mg/kg/injection, schedule: Q01DX009 (oral), vehicle: propolene glycol) was 98 % of control. For the same compound, the T/C (dose: 333.0 mg/kg/injection, schedule: Q01DX Z (oral), vehicle: saline) was 120 % of control, the T/C (dose: 405.0 mg/kg/injection, schedule: Q01DX009 (oral), vehicle: propolene glycol) was 102 % of control and the T/C (dose: 480.0 mg/kg/injection, schedule: Q03DX Z (ip), vehicle: saline) was 112 % of control. For the same compound, the T/C (dose: 960.0 mg/kg/injection, schedule: Q03DX Z (ip), vehicle: saline) was 86 % of control.

In the case of CN(C)c1ccc(C=Nc2ccc([N+](=O)[O-])cc2O)cc1, the T/C [2] is reported as 97 % of control, the T/C [3] is reported as 95 % of control and the T/C [4] is reported as 92 % of control.

For O=C(Nc1ccccc1)NC(O)C(Cl)(Cl)Cl (stereo unspecified), the T/C (dose: 100.0 mg/kg/injection, schedule: Q04DX003 (ip), vehicle: Klucel (hydroxypropylcellulose) (HPC)) was 95 % of control, the T/C (dose: 200.0 mg/kg/injection, schedule: Q04DX003 (ip), vehicle: Klucel (hydroxypropylcellulose) (HPC)) was 95 % of control and the T/C (dose: 400.0 mg/kg/injection, schedule: Q04DX003 (ip), vehicle: Klucel (hydroxypropylcellulose) (HPC)) was 98 % of control.

With CNC(=N)c1ccc(NC(=N)c2ccc(NC(=N)c3ccc(NC(=O)Nc4ccc(C#N)cc4)cc3)cc2)cc1 the T/C (dose: 3.25 mg/kg/injection, schedule: Q01DX015 (ip), vehicle: water) was 119 % of control, the T/C (dose: 13.0 mg/kg/injection, schedule: Q01DX015 (ip), vehicle: water) was 160 % of control and the T/C (dose: 17.0 mg/kg/injection, schedule: Q01DX Z (ip), vehicle: water) was 152 % of control. The T/C (dose: 26.0 mg/kg/injection, schedule: Q01DX015 (ip), vehicle: water) was 205 % of control, the T/C (dose: 30.0 mg/kg/injection, schedule: Q01DX001 (ip), vehicle: water) was 112 % of control and the T/C (dose: 32.5 mg/kg/injection, schedule: Q01DX001 (ip), vehicle: water) was 180 % of control. For the same compound, the T/C (dose: 34.0 mg/kg/injection, schedule: Q01DX Z (ip), vehicle: water) was 153 % of control, the T/C (dose: 50.0 mg/kg/injection, schedule: Q01DX001 (ip), vehicle: water) was 151 % of control and the T/C (dose: 65.0 mg/kg/injection, schedule: Q01DX001 (ip), vehicle: water) was 165 % of control and 210 % of control and 228 % of control. The T/C (dose: 97.0 mg/kg/injection, schedule: Q01DX001 (ip), vehicle: water) was 232 % of control and 267 % of control.

For O=C(O)c1cc(C(=O)O)cc(S(=O)(=O)F)c1, the T/C [5] was 92 % of control, the T/C (dose: 100.0 mg/kg/injection, schedule: Q04DX003 (ip), vehicle: saline with Tween-80) was 91 % of control and the T/C [6] was 88 % of control. For the same compound, the T/C (dose: 200.0 mg/kg/injection, schedule: Q04DX003 (ip), vehicle: saline with Tween-80) was 86 % of control, the T/C [7] was 97 % of control and the T/C (dose: 400.0 mg/kg/injection, schedule: Q04DX003 (ip), vehicle: saline with Tween-80) was 99 % of control.

COc1ccc(/C=C/C(=O)c2ccc(OC)c(OC)c2)cc1OC was tested, and the T/C [5] was 100 % of control, the T/C [6] was 105 % of control and the T/C [7] was 102 % of control.

For O=C1CCCNc2c(Br)cc(Br)cc21, the T/C (dose: 100.0 mg/kg/injection, schedule: Q01DX001 (ip), vehicle: carboxymethylcellulose (CMC)) was 91 % of control, the T/C (dose: 200.0 mg/kg/injection, schedule: Q01DX001 (ip), vehicle: carboxymethylcellulose (CMC)) was 94 % of control and the T/C (dose: 400.0 mg/kg/injection, schedule: Q01DX001 (ip), vehicle: carboxymethylcellulose (CMC)) was 100 % of control.

With O=CNCc1cnccn1 the T/C [5] was 93 % of control, the T/C [6] was 95 % of control and the T/C [7] was 97 % of control.

In the case of NCCc1nc(C(=O)O)cs1, the T/C [2] is reported as 104 % of control, the T/C [1] is reported as 86 % of control and the T/C (dose: 100.0 mg/kg/injection, schedule: Q04DX003 (ip), vehicle: saline) is reported as 103 % of control. The T/C [3] was 102 % of control, the T/C (dose: 200.0 mg/kg/injection, schedule: Q01DX009 (ip), vehicle: saline) was 97 % of control and the T/C (dose: 200.0 mg/kg/injection, schedule: Q04DX003 (ip), vehicle: saline) was 119 % of control. For the same compound, the T/C [4] was 104 % of control, the T/C (dose: 400.0 mg/kg/injection, schedule: Q01DX009 (ip), vehicle: saline) was 86 % of control and the T/C (dose: 400.0 mg/kg/injection, schedule: Q04DX003 (ip), vehicle: saline) was 92 % of control.
